Data taken from patent publication US4994482A, “Arylpyrazol derivatives as anti-platelet agents, compositions and use” (Bristol-Myers Squibb Company, priority 1990, dated 1991).
In brackets after ≈: the same amount, converted by molar mass. Where two headings read alike, the source gives them in different places.

Experiments:
[1] = test system: human platelet-rich plasma (ADP-induced platelet aggregation); experiment: In vitro inhibition of ADP-induced human platelet aggregation (Born aggregometer method); type: cell-based
Protocol: (§1) The aggregometer method of Born, C. […] The human volunteer donor's arm is cleansed with 70% ethyl alcohol. A sterile 20 ml syringe and needle are used to withdraw 20 ml of blood.
(§2) All glassware used for preparation of PRP is silicon treated. […] The various compounds tested were dissolved in dimethylsulfoxide (DMSO) so that 5 mcl added to the platelet rich plasma would yield the desired test concentration. Vehicle control trials were done and compared with aggregation induced in platelet rich plasma containing various concentrations of the test compounds. Dose response curves were obtained and Inhibitor Concentration IC50) values calculated.

[2] = test system: human platelet-rich plasma (collagen-induced platelet aggregation); experiment: In vitro inhibition of collagen-induced human platelet aggregation (Born aggregometer method); type: cell-based; details: human PRP, 0.05 mL of a collagen suspension
Protocol: as §1, §2

[3] = test system: biolaser induced thrombosis (thrombus formation); experiment: In vivo inhibition of biolaser induced thrombosis in rabbit ear chamber; parameters: species or system English lop-ear rabbits
Text: The laser induced thrombosis method is a modification of the technique developed by Sanders, A. G., et al. in Brit. J Exp. Pathol., 1954, 35, 331 and Grant, L., et al. in Proc. Soc. Exp. Biol. Med., 1965, 119, 1123. A detailed description of this method has been described by Fleming, J. S., et al., in Platelets and Thrombosis, A. Scriabine and S. Sherry, eds., Baltimore, Univ. Park Press, pp. 247-262, 1974 and is hereby incorporated by reference.
Briefly, Lucite ear chambers were chronically implanted in adult, English lop-ear rabbits. The animals were conditioned to lie quietly in the supine position. Localized microvascular injury was induced by focusing a single ruby laser beam through a microscope into the lumen of a vessel 10-60 μM in diameter. This evoked the formation of a small thrombus consisting of platelets accumulated around a core of one or two damaged red cells. Thrombus area was determined as a product of two perpendicular measurements made by using a micrometer eye piece. The mean thrombus area (μM^2) obtained for 10 trials in each rabbit served as a control value. The test compound was administered orally and post-dose trials were performed at selected times. Pharmacological activity was evaluated by comparing pre- and post-dose mean thrombus areas.

[4] = human PRP, ADP 0.5 mcg/mL, read-out: IC50 - Human PRP vs:ADP

Work on `O=C(O)CSCCCCCn1nc(-c2ccccc2)c(-c2ccccc2)c1-c1ccccc1` [Example 27, [[5-(3,4,5-Triphenyl-lH-pyrazol-1-yl)pentyl]thio]acetic acid] yielded an IC50 [1, 4] of 1.9 µg/mL (≈ 4.16 µM) and an IC50 [2] of 0.16 µg/mL (≈ 0.35 µM).

With `COC(=O)CCCCCCCCn1nc(-c2ccccc2)c(-c2ccccc2)c1-c1ccccc1` [Example 14, Methyl 3,4,5-triphenyl-lH-pyrazol-1-nonanoate] the IC50 [1, 4] was 2 µg/mL (≈ 4.29 µM) and the IC50 [2] was 0.27 µg/mL (≈ 0.579 µM).

`O=C(O)COCCCCCCn1nc(-c2ccccc2)c(-c2ccccc2)c1-c1ccccc1` [Example 4, [[6-(3,4,5-Triphenyl-lH-pyrazol-1-yl)hexyl]oxy]acetic acid] was tested, and the IC50 [1, 4] was 0.2 µg/mL (≈ 0.44 µM) and the IC50 [2] was 0.096 µg/mL (≈ 0.211 µM).

Molecule `O=C(O)CCCCCCCCn1cc(-c2ccccc2)c(-c2ccccc2)n1` [Example 17, 3,4-Diphenyl-lH-pyrazol-1-nonanoic acid hydrate] has an IC50 [1, 4] of 1.5 µg/mL.

Molecule `c1ccc(-c2nn(CCCCCCCCc3nn[nH]n3)c(-c3ccccc3)c2-c2ccccc2)cc1` [Example 40, 5-[8-(3,4,5-Triphenyl-lH-pyrazol-1-yl)octyl]-2 H-tetrazole] has an IC50 [1, 4] of 0.5 µg/mL (≈ 1.05 µM) and an IC50 [2] of 0.052 µg/mL (≈ 0.109 µM).

`O=C(O)C[S+]([O-])CCCCCCn1nc(-c2ccccc2)c(-c2ccccc2)c1-c1ccccc1` (stereo not shown) [Example 25, [[6-(3,4,5-Triphenyl-lH-pyrazol-1-yl)hexyl]sulfinyl]acetic acid hydrate] showed an IC50 [1, 4] of 3.2 µg/mL.

Molecule `OCCN(CCO)c1nc(N2CCCCC2)c2nc(N(CCO)CCO)nc(N3CCCCC3)c2n1` [dipyridamole, reference compound] has an IC50 ([1]; Homo sapiens, read-out: IC50 vs. ADP) of over 512 µg/mL.

Work on `O=C(O)CCCCCCCCCn1nc(-c2ccccc2)c(-c2ccccc2)c1-c1ccccc1` [Example 36, 3,4,5-triphenyl-lH-pyrazole-1-decanoic acid hydrate] yielded an IC50 [1, 4] of 3.5 µg/mL.

`O=C(O)CCCCCCCCn1ncc(-c2ccccc2)c1-c1ccccc1` [Example 18, 4,5-Diphenyl-lH-pyrazol-1-nonanoic acid] was tested, and the IC50 [1, 4] was 2.5 µg/mL (≈ 6.64 µM) and the IC50 [2] was 0.45 µg/mL (≈ 1.2 µM).

With `O=C(O)CCCCCCCCn1nc(-c2ccccc2)c(-c2ccccc2)c1-c1ccccc1` [Example 15, 3,4,5-Triphenyl-lH-pyrazol-1-nonanoic acid hydrate] the IC50 [1, 4] was 0.16 µg/mL, the IC50 [2] was 0.068 µg/mL and the “inhibition of thrombus formation” value ([3]; oral 1 mg/kg) was “approximately 30%”. For the same molecule, the “inhibition of thrombus formation” value ([3]; oral 10 mg/kg) was “over 60%” and the “inhibition of thrombus formation” value ([3]; oral 30 mg/kg) was “over 60%”.

`O=C(O)CSCCCCCCn1nc(-c2ccccc2)c(-c2ccccc2)c1-c1ccccc1` [Example 21, [[6-(3,4,5-Triphenyl-lH-pyrazol-1-yl)hexyl]thio]acetic acid] gave an IC50 [1, 4] of 0.41 µg/mL (≈ 0.871 µM) and an IC50 [2] of 0.15 µg/mL (≈ 0.319 µM).

For `O=C(O)CCCC=CCCCn1nc(-c2ccccc2)c(-c2ccccc2)c1-c1ccccc1` [Example 10, (Z) and (E)-9-(3,4,5-Triphenyl-lH-pyrazol-1-yl)-5-nonenoic acid hydrate], the IC50 [1, 4] was 0.35 µg/mL and the IC50 [2] was 0.12 µg/mL.

`O=C(O)CCCCCCCn1ncc(-c2ccccc2)c1-c1ccccc1` [Example 44, 4,5-Diphenyl-lH-pyrazole-1-octanoic acid] showed an IC50 [1, 4] of 0.6 µg/mL (≈ 1.66 µM).

With `O=C(O)CCCCCCCn1nc(-c2ccccc2)c(-c2ccccc2)c1-c1ccccc1` [Example 8, 3,4,5-Triphenyl-lH-pyrazol-1-octanoic acid hydrate] the IC50 [1, 4] was 1.9 µg/mL.
